US20020198373A1, “PARTICULATE DRUG CARRIERS” (priority 1997, published 2002)

Tested on: human erythrocytes
Experiment: Haemocompatibility study (haemolysis)
Type: cell-based
Settings: erythrocyte, 5 h, relative to triton X-100 100% and PBS 0%
Method: Freshly drawn human blood was centrifuged (3,000 g) to separate the red blood cells. These were washed in PBS (pH=7.4) and weighed. 3 g of the erythrocyte pellet was dispersed in 100 mL PBS (pH=7.4) and incubated for 5 h with various concentrations of GCP41, cholesterol vesicles prepared as described above or DOTAP vesicles (Sigma Chemical Co., UK). Haemolysis was assessed by centrifugation (3,000 g) to isolate the released haemoglobin, addition of 2×volume of isopropanol to the supernatant and the measurement of the absorbance (570 nm).

`CCCCCCCC/C=C\CCCCCCCC(=O)OCC(C[N+](C)(C)C)OC(=O)CCCCCCC/C=C\CCCCCCCC.COS(=O)(=O)[O-]` (centres unmarked) [DOTAP, N-[1-(2,3-dioleoyloxy)propyl]-N,N,N-trimethylammonium methylsulphate] was tested, and the “% Haemolysis (n = 3)” value (DOTAP ratio 30) was 101.4 ± 20.4% and the “% Haemolysis (n = 3)” value (DOTAP ratio 300) was 71.0 ± 10.6%.
